Structures are written as SMILES.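 Growth conditions: 96-well plates. Treatment: test compound, 48 hours, 5 concentrations. Analysis: linear interpolation between bracketing concentrations; unreached endpoints set to highest concentration. The concentration for full growth arrest is given as TGI.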

The text below walks through data of PubChem BioAssay (NCI).

What all share (assay): NCI anticancer screen, dose series, 48 h
Experiment [1] deals with HCT-15 colon.
Experiment [2] relates to RPMI-8226 leukemia.
The test system of experiment [3] is COLO 205 colon.
Experiment [4] deals with SK-MEL-28 melanoma.
Experiment [5] has as its system NCI-H522 lung.
In experiment [6] the test system is A549 NSCLC.
The subject of experiment [7] is MDA-N.
In experiment [8] the test system is SF-268 CNS.
For experiment [9], the system named is MDA-MB-231 breast.
The subject of experiment [10] is K-562 leukemia.
Experiment [11] deals with SR leukemia.
The subject of experiment [12] is BT-549 breast.
In experiment [13] the test system is A498 renal.
For experiment [14], the system named is UACC-257 melanoma.
Experiment [15] relates to HOP-92 NSCLC.
Experiment [16] concerns M14 melanoma.
Experiment [17] relates to OVCAR-5 ovarian.

As for `CCCC(O)c1cn(C(NC(=O)c2ccccc2)P(=O)(OCC)OCC)nn1` (stereo not given), the TGI in experiment [1], in experiment [2], in [3], in experiment [4], in [5] and in [6] was greater than 100 µM throughout. Besides, the TGI in [7], in experiment [8], in experiment [9], in [10], in [11] and in experiment [12] was greater than 100 µM in each case. Besides, the TGI in experiment [13], in experiment [14], in experiment [15] and in experiment [16] was greater than 100 µM throughout.

For the molecule `O=C(O)C[C@@H]1[C@@H](O)[C@@H](O)CN2C(=O)c3ccccc3[C@H]12`, the TGI in experiment [1], in [17], in experiment [2], in experiment [3], in [4] and in experiment [5] was greater than 100 µM throughout. Further, the TGI in experiment [6], in experiment [7], in [8], in [9], in [10] and in experiment [11] was greater than 100 µM in each case. Moreover, the TGI in [12], in experiment [13], in experiment [14] and in experiment [16] was greater than 100 µM in each case.

As for `O=[N+]([O-])c1ccc(C(Nc2ccccc2)P(c2ccccc2)c2ccccc2)cc1` (stereo not given), the TGI in experiment [1], in [17], in experiment [3], in [4], in experiment [5] and in experiment [6] was greater than 100 µM each time. Also, the TGI in [7], in experiment [8], in experiment [9], in experiment [10], in [11] and in experiment [12] was greater than 100 µM in each case. The TGI in [13], in [14], in [15] and in [16] was greater than 100 µM each time.

With `CCN(CC)C(=S)Nc1ccc(-c2cc3ccc(O)cc3oc2=O)cc1`, the TGI in experiment [1] is 67.6 µM; in [17] it was 79.5 µM; in experiment [2], 95.8 µM; in experiment [3] it was greater than 100 µM; in experiment [4], greater than 100 µM; in experiment [5] it was 43.7 µM. Besides, the TGI in [6] was greater than 100 µM; in experiment [7], greater than 100 µM; in [8] it was greater than 100 µM; in experiment [9], greater than 100 µM; in [10], greater than 100 µM; in [11] it was 93.5 µM. Moreover, the TGI in experiment [12] is 85 µM; in experiment [13], 96.5 µM; in experiment [14] it was 48.4 µM; in [16], greater than 100 µM.

Take `COc1ccc(NC(=O)CC(=O)n2nc(C)c(N=Nc3cccc(C)c3)c2C)cc1`: the TGI in experiment [1], in experiment [17], in [2], in experiment [3], in [4] and in experiment [5] was greater than 100 µM each time. In addition, the TGI in [6], in [7], in [8], in experiment [9], in experiment [11] and in experiment [12] was greater than 100 µM each time. The TGI in [13], in [15] and in experiment [16] was greater than 100 µM each time.

Turning to `O=C(CCCCCC(=O)N1CC(CCl)c2ccc([N+](=O)[O-])cc21)N1CC(CCl)c2ccc([N+](=O)[O-])cc21` (stereo not given), the TGI in [1], in experiment [17], in experiment [3], in [5], in experiment [7] and in experiment [8] was greater than 100 µM each time. The TGI in [9] was greater than 100 µM; in [10] it was greater than 100 µM; in [11], 88.8 µM; in [12], greater than 100 µM; in [13] it was greater than 100 µM; in experiment [14] it was greater than 100 µM. The TGI in experiment [15] and in [16] was greater than 100 µM throughout.

Take `O=C(CCCCCCCCC(=O)N1C(=O)CC(=O)N(c2ccccc2)C1=S)N1C(=O)CC(=O)N(c2ccccc2)C1=S`: the TGI in [1], in [17], in experiment [2], in experiment [3], in [5] and in experiment [6] was greater than 100 µM throughout. The TGI in experiment [7], in [8], in experiment [9], in [11], in experiment [12] and in experiment [13] was greater than 100 µM in each case. The TGI in [14], in [15] and in [16] was greater than 100 µM in each case.

Regarding `COc1ccc(/C=C2\CCS(=O)(=O)c3ccccc3C2=O)cc1OC`, the TGI was 50.4 µM in [1]; greater than 100 µM in experiment [17]; greater than 100 µM in experiment [2]; greater than 100 µM in [3]; greater than 100 µM in experiment [4]; greater than 100 µM in experiment [6]. Also, the TGI in [7] is greater than 100 µM; in experiment [8] it was greater than 100 µM; in experiment [9], greater than 100 µM; in experiment [10] it was greater than 100 µM; in experiment [11], 89.1 µM; in [12], 76.2 µM. Further, the TGI in [13] is 73.7 µM; in [14], greater than 100 µM; in experiment [15], greater than 100 µM; in experiment [16], greater than 100 µM.

For `Brc1ccc2c3c1[C@H]1O[C@H]1c1cccc(c1-3)[C@@H]1O[C@H]21`, the TGI in [1] was found to be 49.1 µM; in [17], 37.2 µM; in experiment [3], 38.3 µM; in experiment [4], 36.5 µM; in [5] it was 27.6 µM; in experiment [6], 49.4 µM. Also, the TGI in experiment [7] is 35.4 µM; in [8], 36.8 µM; in experiment [9], 40.6 µM; in [10], greater than 100 µM; in [11], greater than 100 µM; in [12] it was 31.5 µM. Further, the TGI came to 41.1 µM in [13], 34.2 µM in [14], 38.3 µM in experiment [15] and 32.4 µM in [16].

With `CCCCCCCC(CC(=O)NC(CO)C(=O)NC(CO)CC(C)C)OC(=O)CC(CCCCCCC)OC(=O)CC(CCCCCCC)OC1OC(C)C(O)C(OC2OC(C)C(O)C(O)C2OC(C)=O)C1O` (stereo not given), the TGI in experiment [17] came out at 21.9 µM; in experiment [3], 5.47 µM; in experiment [4], 21.6 µM; in experiment [5], 26.8 µM; in experiment [6], 25.9 µM; in experiment [7], 16 µM. The TGI was determined as 21.2 µM in experiment [8]; 21.5 µM in experiment [9]; 16.8 µM in experiment [10]; 4.93 µM in [11]; 25.1 µM in experiment [12]; 29.4 µM in experiment [13]. Besides, the results for the TGI in experiment [14], in [15] and in experiment [16] were 13.5 µM, 22 µM and 18.7 µM, respectively.

For the molecule `CC1=NN(C(=O)CC(=O)Nc2ccccc2Cl)C(=O)C1N=Nc1ccc(S(=O)(=O)c2ccc(N=NC3C(=O)N(C(=O)CC(=O)Nc4ccccc4Cl)N=C3C)cc2)cc1` (stereo not given), the TGI in experiment [1], in experiment [17], in experiment [2], in [3], in experiment [4] and in [5] was greater than 100 µM in each case. For the same molecule, the TGI in experiment [6], in experiment [7], in [8], in experiment [9], in experiment [10] and in experiment [11] was greater than 100 µM each time. Besides, the TGI in experiment [12], in [14], in [15] and in experiment [16] was greater than 100 µM in each case.

Turning to `O=c1c2c3c(sc2nc2n1N=C(c1ccc(Cl)cc1)CS2)CCCC3`, the TGI in experiment [1], in experiment [17], in experiment [2], in [3], in experiment [4] and in experiment [5] was greater than 100 µM throughout. Further, the TGI in experiment [6], in [7], in experiment [8], in [9], in [10] and in [11] was greater than 100 µM throughout. Also, the TGI in experiment [12], in experiment [13], in experiment [14] and in [15] was greater than 100 µM each time.

For the molecule `CC(=O)OCc1cncn1S(=O)(=O)c1ccc(C)cc1`, the TGI in experiment [1], in experiment [17], in experiment [2], in experiment [3], in experiment [4] and in experiment [5] was greater than 100 µM each time. The TGI was greater than 100 µM in experiment [6]; 45.6 µM in experiment [7]; greater than 100 µM in experiment [8]; greater than 100 µM in experiment [9]; greater than 100 µM in experiment [10]; greater than 100 µM in experiment [11]. For the same molecule, the TGI in experiment [12], in experiment [14], in [15] and in experiment [16] was greater than 100 µM throughout.

On to `C[n+]1c(-c2ccc(/C=N/Nc3ccnc(N/N=C/c4ccc(-c5cn6ccsc6[n+]5C)cc4)n3)cc2)cn2ccsc21`, for which the TGI is greater than 100 µM in [1]; greater than 100 µM in [17]; greater than 100 µM in experiment [2]; 87.9 µM in [3]; greater than 100 µM in [5]; 91.2 µM in [6]. Further, the TGI in experiment [7] is 38.6 µM; in [9] it was greater than 100 µM; in [10] it was 39.7 µM; in experiment [11] it was greater than 100 µM; in experiment [12] it was 78.5 µM; in experiment [13], 65.3 µM. Moreover, the TGI in [14] was 76.2 µM; in experiment [15], greater than 100 µM; in experiment [16] it was 54.7 µM.

Turning to `O=c1oc2ccc([N+](=O)[O-])cc2c(Nc2ccc3c(c2)Sc2ccccc2O3)c1[N+](=O)[O-]`, the TGI in [1] was 35 µM; in experiment [17], 47.2 µM; in [2], 54.2 µM; in [3] it was 34.8 µM; in experiment [4], 69.2 µM; in [5], 33.8 µM. For the same molecule, the TGI in experiment [6] was found to be 73.9 µM; in experiment [7], 88.8 µM; in experiment [8], 61.6 µM; in experiment [9], 38.8 µM; in experiment [10], 88.3 µM; in experiment [11], 55.2 µM. Also, the TGI in [12] amounted to 64.3 µM; in experiment [14] it was 69 µM; in experiment [15] it was 41.6 µM; in experiment [16], 41.6 µM.

With `NNc1nncc2[nH]cnc12`, the TGI in experiment [1], in [17], in experiment [2], in experiment [3], in [4] and in experiment [6] was greater than 100 µM each time. Also, the TGI in experiment [7], in experiment [8], in [9], in experiment [10], in experiment [11] and in experiment [12] was greater than 100 µM in each case. In addition, the TGI in [13], in experiment [14] and in [16] was greater than 100 µM throughout.

On to `COC12CCCN1c1ccn(Cc3ccccc3)c(=O)c1C2=O` (stereo not given), for which the TGI in experiment [1], in [17], in experiment [3], in [4], in experiment [5] and in experiment [6] was greater than 100 µM throughout. Besides, the TGI in experiment [7], in experiment [8], in experiment [9], in [10], in [11] and in experiment [12] was greater than 100 µM throughout. The TGI in [13], in experiment [14], in experiment [15] and in experiment [16] was greater than 100 µM in each case.
